Data taken from patent publication US20100256357A1, “HETEROCYCLES USEFUL AS INHIBITORS OF CARBONIC ANHYDRASE” (Agouron Pharmaceuticals, Inc., priority 2006, published 2010).
Read-outs that look alike come from different tables or passages of the source.

Key:
human CA-II [1] = biological target: T1, human CA-II (Homo sapiens, UniProt P00918); test: Carbonic Anhydrase-II (CA-II) Fluorescence Polarization Tight Binding Assay-Kd Determination; details: inhibitor concentration 2.5 nM
T1 construct: purchased Sigma-Aldrich C6165
Procedure: Assays were conducted in a final volume of 100 μL in 50 mM Tris/HCl (pH 7.6), 100 mM Na2SO4 and 0.005% Tween-20 in a 96-well black assay plate. […] The assay plate was
The Kd binding was calculated using GraphPad Prism and Morrison tight binding ligand equation.

human CA-II [2] = biological target: T1, human CA-II; test: Carbonic Anhydrase-II (CA-II) Fluorimetric Assay-IC50 Determination; type: biochemical; details: for IC50: Kd ND, read-out: CA-II IC50
Outline: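 Enzyme activity is read fluorimetrically at 25° C (ex 488 nm / em 538 nm) as the rate at which human CA-II hydrolyses fluorescein diacetate. The buffer is Tris/HCl (50 mM, pH 7.6) with 100 mM Na2SO4 and 0.005% Tween-20. Inhibitors run in duplicate over 11 threefold dilutions, […]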

human CA-IV = biological target: T2, human CA-IV (Homo sapiens, UniProt P22748); test: Carbonic Anhydrase-IV (CA-IV) Fluorescence Polarization Assay-IC50 Determination; type: binding; details: for inhibition at 0.2 µM: CA-IV Min dose 200 nM, read-out: CA-IV: % Inh @ Min dose; for IC50: read-out: CA-IV IC50
T2 construct: made in house; host or cells: Escherichia coli BL21(DE3)
T2 sequence (P22748 19-284 limits assumed): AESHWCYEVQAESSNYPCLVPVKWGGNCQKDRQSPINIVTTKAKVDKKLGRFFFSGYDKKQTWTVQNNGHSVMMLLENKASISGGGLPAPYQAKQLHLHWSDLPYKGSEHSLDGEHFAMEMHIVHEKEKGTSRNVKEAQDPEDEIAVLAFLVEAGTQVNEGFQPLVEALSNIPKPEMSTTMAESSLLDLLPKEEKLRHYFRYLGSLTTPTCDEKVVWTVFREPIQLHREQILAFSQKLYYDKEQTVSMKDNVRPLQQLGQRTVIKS
Procedure: Carbonic Anhydrase-IV (CA-IV) Fluorescence Polarization Assay-IC50 Determination
These cells were grown in Luria broth (LB) media (Biomyx) supplemented with 800 uM ZnCl2 at 37° C. until an O.D.600 of 0.7, at which point the cells were induced with 100 uM isopropyl-beta-D-thiogalactopyranoside (IPTG) for 20 hours at 20° C. The frozen pellet was resuspended in 50mM 2-morpholinoethanesulfonic acid (MES) at pH 6.0, 100 mM NaCl, 800 uM ZnCl2 and EDTA-Free protease inhibitors (Roche). The cells were lysed with a microfluidizer, the lysate was spun at 40,000 rpm for 45 minutes at 4° C., and the soluble fraction was dialyzed overnight at 4° C. in 50 mM MES pH 6.0, and 100 mM NaCl. The soluble fraction was then put over a 100 ml SP-Sepharose High Performance (GE Healthcare) column and eluted with a 50 mM MES pH 6.0, 750 mM NaCl gradient. The peak fractions were then concentrated, via an Amicon Ultra-4 10,000 MWCO (Millipore) spin column to 2.0 mL and loaded onto a Sephacryl S-100 High Resolution (GE Healthcare) column in 25 mM tris(hydroxymethyl)aminomethane hydrochloride (Tris-HCl) pH 7.0, and 100 mM NaCl. The peak fractions were then concentrated, via an Amicon Ultra-4 10,000 MWCO (Millipore) spin column, to 7.0 mg/mL and left exposed at room temperature overnight. […] T.; et al. Carbonic Anhydrase Inhibitors. Med. Res. Rev. […]
Assays were conducted in a final volume of 100 μL in 50 mM Tris/HCl (pH 7.6), 100 mM Na2SO4 and 0.005% Tween-20 in a 96-well black assay plate.

[3] = CA II Min dose 100 nM, read-out: CAII % Inh @ Min dose

| Structure (SMILES) | inhibition at 0.0025 µM (human CA-II [1]) [%] | further results |
| --- | --- | --- |
| NS(=O)(=O)c1ccc(-n2nc(CNCC3(c4ccccc4)CC3)nc2Cc2ccccc2)c(F)c1 [Example T-45, 4-[5-benzyl-3-({[(1-phenylcyclopropyl)methyl]amino}methyl)-1H-124-triazol-1-yl]-3-fluorobenzenesulfonamide] | 53 |  |
| COC[C@H](C)NCc1nc(Cc2ccccc2)n(-c2ccc(S(N)(=O)=O)cc2F)n1 [Example T-80, 4-[5-benzyl-3-({[(1S)-2-methoxy-1-methylethyl]amino}methyl)-1H-124-triazol-1-yl]-3-fluorobenzenesulfonamide] | 73 |  |
| CN(CCn1cccn1)Cc1nc(Cc2ccccc2)n(-c2ccc(S(N)(=O)=O)cc2F)n1 [Example T-38, 4-[5-benzyl-3-({methyl[2-(1H-pyrazol-1-yl)ethyl]amino}methyl)-1H-124-triazol-1-yl]-3-fluorobenzenesulfonamide] | 54 |  |
| NS(=O)(=O)c1ccc(-n2nc(CNCCOc3ccccc3)nc2Cc2ccccc2)c(F)c1 [Example T-64, 4-(5-benzyl-3-{[(2-phenoxyethyl)amino]methyl}-1H-124-triazol-1-yl)-3-fluorobenzenesulfonamide] | 47 |  |
| CC(C)OCCNCc1nc(Cc2ccccc2)n(-c2ccc(S(N)(=O)=O)cc2F)n1 [Example T-79, 4-(5-benzyl-3-{[(2-isopropoxyethyl)amino]methyl}-1H-124-triazol-1-yl)-3-fluorobenzenesulfonamide] | 44 |  |
| Cc1ccn(CCNCc2nc(Cc3ccccc3)n(-c3ccc(S(N)(=O)=O)cc3F)n2)n1 [Example T-68, 4-[5-benzyl-3-({[2-(3-methyl-1H-pyrazol-1-yl)ethyl]amino}methyl)-1H-124-triazol-1-yl]-3-fluorobenzenesulfonamide] | 55 |  |
| COC1COCCN(Cc2nc(Cc3ccccc3)n(-c3ccc(S(N)(=O)=O)cc3F)n2)C1 (centres unmarked) [Example T-40, 4-{5-benzyl-3-[(6-methoxy-14-oxazepan-4-yl)methyl]-1H-124-triazol-1-yl}-3-fluorobenzenesulfonamide] | 49 |  |
| NS(=O)(=O)c1ccc(-n2nc(CNCCOc3ccccc3F)nc2Cc2ccccc2)c(F)c1 [Example T-54] | 38 |  |
| NS(=O)(=O)c1ccc(-n2nc(CNCc3ccc(F)cc3)nc2Cc2ccccc2)c(F)c1 [Example T-56, 4-(5-benzyl-3-{[(4-fluorobenzyl)amino]methyl}-1H-124-triazol-1-yl)-3-fluorobenzenesulfonamide] | 50 |  |
| COC[C@@H](NCc1nc(Cc2ccccc2)n(-c2ccc(S(N)(=O)=O)cc2F)n1)c1ccccc1 [Example T-47, 4-[5-benzyl-3-({[(1S)-2-methoxy-1-phenylethyl]amino}methyl)-1H-124-triazol-1-yl]-3-fluorobenzenesulfonamide] | 41 |  |
| Cc1cccc(CC(C)NCc2nc(Cc3ccccc3)n(-c3ccc(S(N)(=O)=O)cc3F)n2)n1 (centres unmarked) [Example T-78, 4-[5-benzyl-3-({[1-methyl-2-(6-methylpyridin-2-yl)ethyl]amino}methyl)-1H-124-triazol-1-yl]-3-fluorobenzenesulfonamide] | 71 |  |
| NS(=O)(=O)c1ccc(-n2nc(CN[C@H](CO)Cc3ccccc3)nc2Cc2ccccc2)c(F)c1 [Example T-44, 4-[5-benzyl-3-({[(1S)-1-benzyl-2-hydroxyethyl]amino}methyl)-1H-124-triazol-1-yl]-3-fluorobenzenesulfonamide] | 49 |  |
| NS(=O)(=O)c1ccc(-n2nc(CN[C@@H]3COC[C@@H]3C3CC3)nc2Cc2ccccc2)c(F)c1 [Example T-77, 4-[5-benzyl-3-({[(3S4R)-4-cyclopropyltetrahydrofuran-3-yl]amino}methyl)-1H-124-triazol-1-yl]-3-fluorobenzenesulfonamide] | 50 |  |
| C[C@@H]1COCCN1Cc1nc(Cc2ccccc2)n(-c2ccc(S(N)(=O)=O)cc2F)n1 [Example T-41, 4-(5-benzyl-3-{[(3R)-3-methylmorpholin-4-yl]methyl}-1H-124-triazol-1-yl)-3-fluorobenzenesulfonamide] | 58 |  |
| NS(=O)(=O)c1ccc(-n2nc(CNCCc3ccccc3F)nc2Cc2ccccc2)c(F)c1 [Example T-58, 4-[5-benzyl-3-({[2-(2-fluorophenyl)ethyl]amino}methyl)-1H-124-triazol-1-yl]-3-fluorobenzenesulfonamide] | 51 |  |
| C[C@@H](NCc1nc(Cc2ccccc2)n(-c2ccc(S(N)(=O)=O)cc2F)n1)[C@@H](O)c1ccccc1 [Example T-43, 4-[5-benzyl-3-({[(1R2S)-2-hydroxy-1-methyl-2-phenylethyl]amino}methyl)-1H-124-triazol-1-yl]-3-fluorobenzenesulfonamide] | 41 |  |
| NS(=O)(=O)c1ccc(-n2nc(CNCc3cc(F)ccc3F)nc2Cc2ccccc2)c(F)c1 [Example T-60, 4-(5-benzyl-3-{[(25-difluorobenzyl)amino]methyl}-1H-124-triazol-1-yl)-3-fluorobenzenesulfonamide] | 57 |  |
| COc1cccc(CCNCc2nc(Cc3ccccc3)n(-c3ccc(S(N)(=O)=O)cc3F)n2)c1 [Example T-73, 4-[5-benzyl-3-({[2-(3-methoxyphenyl)ethyl]amino}methyl)-1H-124-triazol-1-yl]-3-fluorobenzenesulfonamide] | 50 |  |
| NS(=O)(=O)c1ccc(-n2nc(CNC3Cc4ccccc4C3)nc2Cc2ccccc2)c(F)c1 [Example T-76, 4-{5-benzyl-3-[(23-dihydro-1H-inden-2-ylamino)methyl]-1H-124-triazol-1-yl}-3-fluorobenzenesulfonamide] | 41 |  |
| NS(=O)(=O)c1ccc(-n2nc(CNCc3ccccc3F)nc2Cc2ccccc2)c(F)c1 [Example T-74, 4-(5-benzyl-3-{[(2-fluorobenzyl)amino]methyl}-1H-124-triazol-1-yl)-3-fluorobenzenesulfonamide] | 45 |  |
| COC[C@H]1CCC[C@H]1NCc1nc(Cc2ccccc2)n(-c2ccc(S(N)(=O)=O)cc2F)n1 [Example T-71, 4-[5-benzyl-3-({[(1R2S)-2-(methoxymethyl)cyclopentyl]amino}methyl)-1H-124-triazol-1-yl]-3-fluorobenzenesulfonamide] | 47 |  |
| CC(C)CCNCc1nc(Cc2ccccc2)n(-c2ccc(S(N)(=O)=O)cc2F)n1 [Example T-59, 4-(5-benzyl-3-{[(3-methylbutyl)amino]methyl}-1H-124-triazol-1-yl)-3-fluorobenzenesulfonamide] | 53 |  |
| CCN(CCCCO)C(=O)c1nc(Cc2ccccc2)n(-c2ccc(S(N)(=O)=O)cc2)n1 [Example R-19, 1-[4-(aminosulfonyl)phenyl)-5-benzyl-N-ethyl-N-(4-hydroxybutyl)-1H-124-triazole-3-carboxamide] |  | inhibition at 0.1 µM (human CA-II [2]; [3]): 99%; IC50 (human CA-II [2]): 3.55 nM; inhibition at 0.2 µM (human CA-IV): 50.2%; IC50 (human CA-IV): 306 nM |
| NS(=O)(=O)c1ccc(-n2nc(C(=O)N3CCOc4ccccc4C3)nc2Cc2ccccc2)cc1 [Example R-7, 4-[5-benzyl-3-(23-dihydro-14-benzoxazepin-4(5H)-ylcarbonyl)-1H-124-triazol-1-yl]benzenesulfonamide] |  | inhibition at 0.1 µM (human CA-II [2]; [3]): 101%; IC50 (human CA-II [2]): 3.68 nM; inhibition at 0.2 µM (human CA-IV): 59.1%; IC50 (human CA-IV): 182 nM |
| NS(=O)(=O)c1ccc(-n2nc(C(=O)N3CCc4ccccc4CC3)nc2Cc2ccccc2)cc1 [Example R-4, 4-[5-benzyl-3-(1245-tetrahydro-3H-3-benzoazepin-3-ylcarbonyl)-1H-124-triazol-1-yl]benzenesulfonamide] |  | inhibition at 0.1 µM (human CA-II [2]; [3]): 100%; IC50 (human CA-II [2]): 3.4 nM; inhibition at 0.2 µM (human CA-IV): 74.3%; IC50 (human CA-IV): 115 nM |
| NS(=O)(=O)c1ccc(-n2nc(C(=O)N3CC(Oc4ccccc4)C3)nc2Cc2ccccc2)cc1 [Example R-15, 4-(5-benzyl-3-[(3-phenoxyazetidin-1-yl)carbonyl]-1H-124-triazol-1-yl)benzenesulfonamide] |  | inhibition at 0.1 µM (human CA-II [2]; [3]): 96%; inhibition at 0.1 µM (human CA-II [2]; read-out: CA-II % at 100 nM): 96%; inhibition at 0.2 µM (human CA-IV): 60.9%; IC50 (human CA-IV): 220 nM |
